Experimental data as given in the NIST ThermoML archive (doi:10.1016/j.jct.2016.01.016).

Legend:
[1] = for mass density: 101.33 kPa
[2] = Molar enthalpy of transition or fusion; details: DSC

NC(=O)CN1CCCC1=O [2-oxo-1-pyrrolidineacetamide]
[1]
Details | Triple point temperature [K] | mass density [kg/m3] | molar volume [m3/mol]
300 K, Crystal 2, X-ray diffraction | – | 1373 | 0.0001036
310 K, Crystal 2, X-ray diffraction | – | – | 0.0001031
320 K, Crystal 2, X-ray diffraction | – | – | 0.0001039
330 K, Crystal 2, X-ray diffraction | – | – | 0.0001036
340 K, Crystal 2, X-ray diffraction | – | – | 0.0001042
350 K, Crystal 2, X-ray diffraction | – | – | 0.0001042
360 K, Crystal 2, X-ray diffraction | – | – | 0.0001047
370 K, Crystal 1, X-ray diffraction | – | – | 0.0001104
370 K, Crystal 2, X-ray diffraction | – | – | 0.0001049
375 K, Crystal 1, X-ray diffraction | – | – | 0.0001105
380 K, Crystal 1, X-ray diffraction | – | – | 0.0001106
385 K, Crystal 1, X-ray diffraction | – | – | 0.0001108
390 K, Crystal 1, X-ray diffraction | – | – | 0.0001108
395 K, Crystal 1, X-ray diffraction | – | – | 0.000111
400 K, Crystal 1, X-ray diffraction | – | 1281 | 0.000111
405 K, Crystal 1, X-ray diffraction | – | – | 0.0001112
410 K, Crystal 1, X-ray diffraction | – | – | 0.0001112
Metastable crystal, DSC | 365.05 | – | –
Metastable crystal, X-ray diffraction | 360.15 | – | –

[1]
Details | mass density [kg/m3] | molar volume [m3/mol]
300 K, Metastable crystal, X-ray diffraction | 1365 | 0.0001042
310 K, Metastable crystal, X-ray diffraction | – | 0.0001044
320 K, Metastable crystal, X-ray diffraction | – | 0.0001045
330 K, Metastable crystal, X-ray diffraction | – | 0.0001049
340 K, Metastable crystal, X-ray diffraction | – | 0.0001051
350 K, Metastable crystal, X-ray diffraction | – | 0.0001054
355 K, Metastable crystal, X-ray diffraction | – | 0.0001054
360 K, Metastable crystal, X-ray diffraction | – | 0.0001055
423 K, Liquid, Vibrating tube method | – | 0.0001228
428 K, Liquid, Vibrating tube method | – | 0.0001232
433 K, Liquid, Vibrating tube method | – | 0.0001235
438 K, Liquid, Vibrating tube method | – | 0.0001239
443 K, Liquid, Vibrating tube method | – | 0.0001241
448 K, Liquid, Vibrating tube method | – | 0.0001245
453 K, Liquid, Vibrating tube method | – | 0.0001248
458 K, Liquid, Vibrating tube method | – | 0.0001252
463 K, Liquid, Vibrating tube method | – | 0.0001255
468 K, Liquid, Vibrating tube method | – | 0.0001259
473 K, Liquid, Vibrating tube method | – | 0.0001262

Details | Molar enthalpy of transition or fusion, Crystal 1 [kcal/mol] | Molar enthalpy of transition or fusion, Metastable crystal [kcal/mol] | Triple point temperature, Crystal 1, DSC [K] | Triple point temperature, Crystal 2, X-ray diffraction [K]
[1] | – | – | 422.95 | 370.15
[2] | 6.35 | 0.843 | – | –
